Laboratory results as given in patent US8309745B2, “Epigallocatechin dimers or trimers having lipase inhibitory activity and/or antioxidant activity” (Suntory Holdings Limited, priority 2004, dated 2012).

Columns and labels:
[1] = Superoxide anion radical scavenging activity (hypoxanthine-xanthine oxidase reaction, ESR with DMPO); conditions: O2- generated by hypoxanthine-xanthine oxidase, DMPO trapping agent
Procedure: The superoxide anion radical scavenging activity was measured by the method to be described in Example 5. Briefly, O2^− was generated by means of hypoxanthine-xanthine oxidase reaction and 5,5-dimethyl-1-pyrrolin-N-oxide was used as a trapping agent to perform measurement by ESR. Measurements were conducted in the presence or absence of compounds of the present invention and the results were expressed as IC50 or the amount of a sample that provided 50% suppression of O2^− generation.
Evaluation was made of the activity for scavenging superoxide anion radicals generated by hipoxanthine-xanthine oxidase reaction, a kind of active oxygen.
After preparing (1) 2 mM hypoxanthine solution (dissolved in 0.1 M phosphate buffered solution at pH 7.4) and (2) 5.5 mM diethylenetriamine-pentaacetic acid (dissolved in 0.1 M phosphate buffered solution at pH 7.4), 5.0 ml of the solution (1), 3.5 ml of the solution (2), and 1.5 ml of 5,5-dimethyl-1-pyrrolin-N-oxide (DMPO, product of LABOTECH) were mixed to make reagent 1. A 50-μl portion of reagent 1 was put in a 1.5-ml microtube and incubated at 37° C. for 4 minutes. To the incubated reagent 1, a methanol solution of the sample was added in an amount of 20 μl and then 50 μl of xanthine oxidase (0.4 units/ml) was added, followed by stirring for 10 seconds. The reaction mixture was injected into a hematocrit tube, which was set in an ESR apparatus and sweeping in a magnetic field was started 60 seconds after addition of xanthine oxidase. The conditions of ESR measurement were as follows: Power, 4 mW; C. Field, 335.5 mT, SwWid (±), 5 mT; SwTime, 1 min; ModWid, 0.1 mT; Amp, 160; TimeC, 0.1 sec; Temperature, 20° C.
Among the ESR signals from DMPO-OOH, the signal of the lowest field strength was compared in height to the internal standard Mn^2+ signal and the ratio (S/M) was assumed to represent the amount of O2^− and the O2^− scavenging activity was calculated by the following formula: O2^− scavenging activity(%)=100−{100×(S/M in the presence of the sample)/(S/M in the absence of the sample)} Results: […]

[2] = biological target: T1, swine pancreatic lipase (Sus scrofa, UniProt P00591); experiment: Measurement of lipase inhibitory activity (4-UMO fluorescence assay); type: biochemical; conditions: for IC50: swine pancreatic lipase, 4-UMO substrate, pH 8.0, 30-minute reaction, read-out: Lipase Inhibitory Activities of Various Polyphenols IC50; for lipase inhibitory activity compared with EGCG: in words
T1 construct: purchased Sigma
T1 sequence (P00591 1-450): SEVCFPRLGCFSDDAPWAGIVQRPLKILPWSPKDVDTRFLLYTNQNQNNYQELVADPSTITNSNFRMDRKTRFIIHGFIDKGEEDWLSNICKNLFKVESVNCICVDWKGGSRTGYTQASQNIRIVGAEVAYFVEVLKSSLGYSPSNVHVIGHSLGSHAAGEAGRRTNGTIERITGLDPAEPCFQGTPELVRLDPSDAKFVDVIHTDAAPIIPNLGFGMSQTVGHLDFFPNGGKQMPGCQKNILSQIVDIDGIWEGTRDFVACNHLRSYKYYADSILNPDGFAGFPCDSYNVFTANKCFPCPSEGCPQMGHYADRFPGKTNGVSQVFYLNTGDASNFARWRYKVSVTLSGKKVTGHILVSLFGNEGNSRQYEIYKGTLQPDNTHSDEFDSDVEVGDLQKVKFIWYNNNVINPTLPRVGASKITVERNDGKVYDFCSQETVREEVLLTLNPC
Excerpt: Lipase inhibitory activity can be measured by any one of the lipase activity assays that are described in the prior applications mentioned in the Background Art. As for inhibitory activity against pancreatic lipase, an oleic ester of fluorescent 4-methylumbelliferone may be used as a substrate to measure the fluorescence from 4-methylumbelliferone that is formed by reaction with the lipase. The amount of a sample that provides 50% inhibition of lipase activity (IC50) may be substituted to express lipase inhibitory activity in accordance with the usual method.
For lipase activity measurement, an oleic ester of fluorescent 4-methylumbelliferone (4-UMO) was used as a substrate and the fluorescence from 4-methylumbelliferone formed by enzyme reaction was measured.
The buffer used in the measurement was 13 mM tris-HCl (pH 8.0) containing 150 mM NaCl and 1.36 mM CaCl2. The substrate 4-UMO (product of Sigma-Aldrich Co.) was prepared as 0.1 M solution in DMSO and then diluted 1,000-fold with the buffer. The lipase subjected to enzyme measurement was swine pancreatic lipase (product of Sigma) that had been diluted to a concentration of 400 U/ml with the buffer.
To start the enzyme reaction, 50 μl of buffered 4-UMO solution and 25 μl of distilled water (or an aqueous solution of sample) were loaded and mixed on a 96-well microplate and 25 μl of the buffered lipase solution was then added. After 30-minute reaction, 100 μl of 0.1 M citrate buffered solution (pH 4.2) was added to quench the reaction and the fluorescence from 4-methylumbelliferone (excitation wavelength: 355 nm; fluorescence wavelength: 460 nm), which was generated by the reaction, was measured with a fluorescence plate reader (Fluoroskan Asent CF: product of Labsystems).
The inhibitory activity of the test sample was determined as its amount that would provide 50% inhibition of lipase activity (IC50 in μl) compared to the activity of the control (distilled water).
The lipase inhibitory activities of six compounds (dimers of OHBFs and their trimer), as well as epigallocatechin gallate (EGCG) were measured in accordance with Example 1 and the results are shown in Table 1.

Row | IC50 [1] [nM] | IC50 [2] [nM] | Structure (SMILES) | lipase inhibitory activity compared with EGCG [2]
1 | 14000 | – | O=C(O[C@@H]1Cc2c(O)cc(O)cc2O[C@@H]1c1cc(O)c(O)c(O)c1)c1cc(O)c(O)c(O)c1 [Epigallocathechin 3-O-gallate (7), (−)-epigallocatechin-3-O-gallate, reference compound] | –
2 | – | 49 | O=C(O[C@@H]1Cc2c(O)cc(O)c(Cc3c(O)cc(O)c4c3O[C@H](c3cc(O)c(O)c(O)c3)[C@H](OC(=O)c3cc(O)c(O)c(O)c3)C4)c2O[C@@H]1c1cc(O)c(O)c(O)c1)c1cc(O)c(O)c(O)c1 [Oolong homobisflavan A (1), oolong homobisflavan A] | –
3 | 10100 | 129 | O=C(O[C@@H]1Cc2c(O)cc(O)c(Cc3c(O)c(Cc4c(O)cc(O)c5c4O[C@H](c4cc(O)c(O)c(O)c4)[C@H](OC(=O)c4cc(O)c(O)c(O)c4)C5)c4c(c3O)C[C@@H](OC(=O)c3cc(O)c(O)c(O)c3)[C@@H](c3cc(O)c(O)c(O)c3)O4)c2O[C@@H]1c1cc(O)c(O)c(O)c1)c1cc(O)c(O)c(O)c1 [Trimer (4)] | potent lipase inhibitory activity compared with EGCG
4 | 6200 | 97 | O=C(O[C@@H]1Cc2c(cc(O)c(Cc3c(O)cc4c(c3O)C[C@@H](OC(=O)c3cc(O)c(O)c(O)c3)[C@@H](c3cc(O)c(O)c(O)c3)O4)c2O)O[C@@H]1c1cc(O)c(O)c(O)c1)c1cc(O)c(O)c(O)c1 [Oolong homobisflavan C (3), oolong homobisflavan C] | potent lipase inhibitory activity compared with EGCG
5 | – | 2080 | Oc1cc([C@H]2Oc3cc(O)c(Cc4c(O)cc(O)c5c4O[C@H](c4cc(O)c(O)c(O)c4)[C@H](O)C5)c(O)c3C[C@H]2O)cc(O)c1O [Didesgalloyl oolong homobisflavan B (6), didesgalloyl oolong homobisflavan B] | –
6 | – | 108 | O=C(O[C@@H]1Cc2c(cc(O)c(Cc3c(O)cc(O)c4c3O[C@H](c3cc(O)c(O)c(O)c3)[C@H](OC(=O)c3cc(O)c(O)c(O)c3)C4)c2O)O[C@@H]1c1cc(O)c(O)c(O)c1)c1cc(O)c(O)c(O)c1 [Oolong homobisflavan B (2), oolong homobisflavan B] | –
7 | – | 271 | O=C(O[C@@H]1Cc2c(O)cc(O)c(Cc3c(O)cc(O)c4c3O[C@H](c3cc(O)c(O)c(O)c3)[C@H](O)C4)c2O[C@@H]1c1cc(O)c(O)c(O)c1)c1cc(O)c(O)c(O)c1 [monodesgalloyl oolong homobisflavan A] | –
